Reference: US12559749B2, “Methods of rescuing stop codons via genetic reassignment with ACE-tRNA” (UNIVERSITY OF IOWA RESEARCH FOUNDATION, priority 2017, dated 2026)

Key:
[1] = system: native stop codons (TAA, TAG, TGA), 3′UTR ribosome density; experiment: Ribosome footprint profiling of transcriptome-wide 3′UTRs, HEK293 cells; type: cell-based, human
Text: The question was raised whether ACE-tRNAs that show efficacious suppression of premature stop codons may also induce global readthrough of native stop codons. To address this potential “off target” suppression, a transcriptome-wide quantitative profile of actively engaged ribosomes on all cellular transcripts was obtained by generating libraries of ribosome footprints from HEK293 cells expressing exogenous ACE-tRNAs or a control mock plasmid (puc57GG). Streptomycin was removed from the growth media to prevent readthrough artifacts. For comparison, the ribosome footprint library was also generated from cells in the presence or absence of G418 (150 μM, 48 h). […] Only transcripts with a minimum threshold of 5 RPKM in the coding sequence and 0.5 RPKM in the 3′UTR in two replicate libraries were included for the quantitation comparison (254 transcripts in G418 and 495-748 transcripts in ACE-tRNAs). […] ACE-tRNAs examined here had no detectable change of 3′UTR ribosome density with the exception of ACE-tRNA Gln-UAA and Arg-UGA which induced approximately a 2-fold increase in 3′UTR ribosome density for the cognate stop codon complimentary to the ACE-tRNA anticodon. Understanding the biological significance of 2-fold readthrough of protein stops will require further study, but this effect is substantially lower compared to the 100- to 1000-fold suppression of PTC for the same ACE-tRNA.
Multiple in-frame stop codons are frequently found at the end of genes 37-39 and may cause a minor difference in overall 3′UTR ribosome density for ACE-tRNA and G418 treatment. Ribosome occupancy was examined at each nucleotide in the 3′UTR within a 60 nt region downstream of the stop codons. […] Reads were normalized per total million-mapped reads, compared against control cells, and reported as a log 2-fold change as in panel A. More than 5,200 transcripts were mapped to at least 1 footprint in the region of interest. […] Taken together, the ribosome profiling data argue that efficiency of native stop codon suppression by ACE-tRNAs is generally low, and markedly less than the level of PTC suppression.
Ribosome Footprint Profiling Library preparation. HEK293 cells transiently transfected with ACE-tRNAs and control plasmid (puc57GG) were grown in standard grown media in the absence of Pen-Strep for 48 h. Libraries were prepared as described^55, with a few modifications. Briefly, cells were rapidly cooled by addition of ice-cold PBS, lysed in lysis buffer (20 mM Tris-HCl/pH7.4, 150 mM NaCl, 5 mM MgCl2, 1 mM DTT, 1% (v/v) Triton X-100, and 25 U ml^−1 Turbo DNase I) for 10 min on ice, and triturated with ten times through a 26-G needle. […]

[2] = Phase 3 clinical trials; cited from earlier work
[3] = system: NLuc-UGA PTC reporter; experiment: NanoLuc nonsense reporter screen of ACE-tRNA, UGA (TGA) PTC, HEK293 cells; type: cell-based, human; settings: t-stem variants, luciferase 24 hours post-transfection, HEK cells
Text: Several different nonsense mutations cause CF, thus underlying roughly 10% of all CF disease. FIG. 7. These cases are concentrated into […] specific genetic lesions: E60X, R75X, G542X, R553X, Q890X, Y1092X, R1158X, R1162X and W1282X. We propose that it should be feasible, with the right approach, to screen existing human tRNA sequences for modification and tolerance to anti-codon editing. To this end, roughly 144 ACE-tRNAs were candidates to test for those that could be used to promote the repair of the disease causative nonsense codon and the expression of the full-length protein. Specifically, using the scheme described in FIG. 11, tRNA libraries were generated to identify novel tRNA sequences that encode for ACE tRNA with the ability to repair the top CF causative nonsense mutations. Specifically, 10 ng of annealed oligos encoding the ACE-tRNAs were combined with 50 ng of NanoLuc reporter plasmid, 1 ul 10× CutSmart Buffer (NEB), 1 ul T4 ligase (NEB), 10 mM ATP and 1 ul BbsI (NEB) and cycled in a thermocycler as described in FIG. 11. 1 ul of the reaction was transformed into competent E. coli and the transformants were plated on ampicillin agar plates. […]
Screening studies were first performed to identify the best ACE-tRNA Candidates from tryptophan and glycine. […] Plates were read on a SpectraMax i3 (Molecular Devices). […]

With CN[C@@H]1[C@@H](O)[C@@H](O[C@@H]2[C@@H](O)[C@H](O[C@H]3O[C@H]([C@@H](C)O)[C@@H](O)[C@H](O)[C@H]3N)[C@@H](N)C[C@H]2N)OC[C@]1(C)O [G418, reference compound] the “effect on transcriptome-wide 3′UTR ribosome density” value ([1]; G418 150 μM, 48 h, ACE-tRNAs transiently transfected) was “no observable effect on transcriptome-wide 3′UTR ribosome density” and the “ribosome occupancy in the early region of 3′UTR downstream of stop codons” value ([1]; per nucleotide, -35 to +65 nt) was “no observable change of ribosome occupancy”.

In the case of O=C(O)c1cccc(-c2noc(-c3ccccc3F)n2)c1 [Ataluren], the “efficacy in patient populations” value [2] is given as “unexpectedly low efficacy”.

B1: TS-38 52-62 G-C: t-stem variant of Trpchr17.trna39, SEQ ID NO: 3 (nucleic acid)
chain: GGCCUCGUGGCGCAACGGUAGCGCGUCUGACUUCAGAUCAGAAGGUUCCGGGUUCAAAUCCCGGCGGGGUCA
modifications: expressed or natural sequence
With B1 the “increase of suppression activity relative to Trpchr17.trna39” value [3] was “roughly 250%”.

B2: TS-10 52-62 G-C: t-stem mutant of Trpchr17.tRNA 39, FIG. 12B, SEQ ID NO: 589 (nucleic acid)
chain: GACCUCGUGGCGCAACGGUUAGCGCGUCUGACUUCAGAUCAGAAGGCUCCGGGUUCGAAUCCCGGCGGGGUCA
modifications: expressed or natural sequence
In the case of B2, the “increase of suppression activity relative to Trpchr17.trna39” value [3] is reported as ~250%.
